Biological target: T1, NAMPT (Homo sapiens, UniProt P43490)
T1 construct: purchased Abcam ab221819
Assay: NAMPT Activity Assay (Abcam #ab221819)
Assay type: biochemical
Conditions: purified NAMPT, percent inhibition from OD450 nm; compound concentration not given
Experimental: The NAMPT Activity Assay (Abcam #ab221819) was performed following manufacturers two-step reaction protocol. Briefly, compounds were added to a clear 96-well plate using the HP D300e Digital Dispenser. Purified NAMPT was added to all wells except the No NAMPT controls. Reaction Mix #1 was added to each well and the plate was incubated at 30*C for 1 hr followed by the addition of Reaction Mix #2. Absorbance was measured at OD450 nm using a multimode plate reader. Readings were recorded for 5 minutes and percent inhibition was calculated using: (1-(OD450 nm compound/OD450nm no drug))*100.

T1 sequence (P43490 whole entry): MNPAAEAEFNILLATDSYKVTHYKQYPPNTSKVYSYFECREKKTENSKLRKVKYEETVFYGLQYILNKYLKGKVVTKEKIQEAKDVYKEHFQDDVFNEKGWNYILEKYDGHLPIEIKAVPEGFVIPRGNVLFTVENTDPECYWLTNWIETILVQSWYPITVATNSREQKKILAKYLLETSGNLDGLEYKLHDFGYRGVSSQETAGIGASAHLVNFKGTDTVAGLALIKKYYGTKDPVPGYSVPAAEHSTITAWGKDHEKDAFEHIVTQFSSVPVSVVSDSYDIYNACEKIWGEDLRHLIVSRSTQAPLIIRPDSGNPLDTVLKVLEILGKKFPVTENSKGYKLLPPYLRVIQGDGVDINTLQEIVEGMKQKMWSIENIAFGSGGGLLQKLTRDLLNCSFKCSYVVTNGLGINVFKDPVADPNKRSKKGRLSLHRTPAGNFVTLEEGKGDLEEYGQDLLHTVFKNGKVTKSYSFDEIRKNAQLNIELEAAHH

SMILES	NAMPT Inhibition Code*
CC(=O)N(CC1CC1)c1ccc(-c2ccc(NC(=O)Cc3ccc(Cl)nc3)cn2)cc1Cl [I-T2391, N-[6-[4-[acetyl(cyclopropylmethyl)amino]-3-chloro-phenyl]-3-pyridyl]-2-(6-chloro-3-pyridyl)acetamide]	C (C = ≥66% inhibition)
CC(=O)N(CC(F)F)c1ccc(-c2ccc(NC(=O)/C=C/c3cccnc3)cn2)cc1Cl [I-T2293, (E)-N-[6-[4-[acetyl(2,2-difluoroethyl)amino]-3-chloro-phenyl]-3-pyridyl]-3-(3-pyridyl)prop-2-enamide]	C (C = ≥66% inhibition)
CC(=O)N(CC(F)F)c1ccc(-c2ccc(C(=O)NCCCn3ccnc3)cn2)cc1Cl [I-T2288, 6-[4-[Acetyl(2,2-difluoroethyl)amino]-3-chloro-phenyl]-N-(3-imidazol-1-ylpropyl)pyridine-3-carboxamide]	C (C = ≥66% inhibition)
CC(=O)N(CC1CC1)c1ccc(-c2ccc(C(=O)NC3Cc4ccc(Br)cc4C3)cn2)cc1Cl (centres unmarked) [I-T2153, 6-[4-[Acetyl(cyclopropylmethyl)amino]-3-chloro-phenyl]-N-(5-bromoindan-2-yl)pyridine-3-carboxamide]	A (*A = <33% inhibition)
COC(=O)c1cc(-c2ccc(C(=O)NCCCn3ccnc3)cn2)ccc1N(CC1CC1)C(C)=O [I-T2300, Methyl 2-[acetyl(cyclopropylmethyl)amino]-5-[5-(3-imidazol-1-ylpropylcarbamoyl)-2-pyridyl]benzoate]	C (C = ≥66% inhibition)
COC(=O)c1cc(-c2ccc(C(=O)NCCCc3cc[nH]n3)cn2)ccc1N(CC1CC1)C(C)=O [I-T2299, Methyl 2-[acetyl(cyclopropylmethyl)amino]-5-[5-[3-(1H-pyrazol-3-yl)propylcarbamoyl]-2-pyridyl]benzoate]	C (C = ≥66% inhibition)
CC(=O)N(CC1CC1)c1ccc(-c2ccc(C(=O)N3Cc4ccncc4C3)cn2)cc1Cl [I-T2138, N-[2-Chloro-4-[5-(1,3-dihydropyrrolo[3,4-c]pyridine-2-carbonyl)-2-pyridyl]phenyl]-N-(cyclopropylmethyl)acetamide]	A (*A = <33% inhibition)
CC(=O)N(CC1CC1)c1ccc(-c2ccc(C(=O)NCc3cncs3)cn2)cc1Cl [I-T2355, 6-[4-[acetyl(cyclopropylmethyl)amino]-3-chloro-phenyl]-N-(thiazol-5-ylmethyl)pyridine-3-carboxamide]	A (*A = <33% inhibition)
CC(=O)N(CC1CC1)c1ccc(-c2ccc(C(=O)NCC3CCCCO3)cn2)cc1Cl (centres unmarked) [I-T2340, 6-[4-[acetyl(cyclopropylmethyl)amino]-3-chloro-phenyl]-N-(tetrahydropyran-2-ylmethyl)pyridine-3-carboxamide]	A (*A = <33% inhibition)
CC(=O)N(CC1CC1)c1ccc(-c2ccc(C(=O)NCc3c[nH]cn3)cn2)cc1Cl [I-T2151, 6-[4-[Acetyl(cyclopropylmethyl)amino]-3-chloro-phenyl]-N-(1H-imidazol-4-ylmethyl)pyridine-3-carboxamide]	A (*A = <33% inhibition)
CC(=O)N(CC(F)F)c1ccc(-c2ccc(C(=O)NCCc3cn[nH]c3)cn2)cc1Cl [I-T2114, 6-[4-[Acetyl(2,2-difluoroethyl)amino]-3-chloro-phenyl]-N-[2-(1H-pyrazol-4-yl)ethyl]pyridine-3-carboxamide]	A (*A = <33% inhibition)
CC(=O)N(CC1CC1)c1ccc(-c2ccc(C(=O)NCc3cc[nH]n3)cn2)cc1Cl [I-T2132, 6-[4-[Acetyl(cyclopropylmethyl)amino]-3-chloro-phenyl]-N-(1H-pyrazol-3-ylmethyl)pyridine-3-carboxamide]	A (*A = <33% inhibition)
CC(=O)N(CC1CC1)c1ccc(-c2ccc(C(=O)Nc3ccc4[nH]cnc4c3)cn2)cc1Cl [I-T2137, 6-[4-[Acetyl(cyclopropylmethyl)amino]-3-chloro-phenyl]-N-(1H-benzimidazol-5-yl)pyridine-3-carboxamide]	C (C = ≥66% inhibition)
COC(=O)c1cc(-c2ccc(C(=O)Nc3cnc4nccn4c3)cn2)ccc1N(CC1CC1)C(C)=O [I-T2295, Methyl 2-[acetyl(cyclopropylmethyl)amino]-5-[5-(imidazo[1,2-a]pyrimidin-6-ylcarbamoyl)-2-pyridyl]benzoate]	C (C = ≥66% inhibition)
CC(=O)N(CC(F)F)c1ccc(-c2ccc(C(=O)NCCCc3cn[nH]c3)cn2)cc1Cl [I-T2108, 6-[4-[Acetyl(2,2-difluoroethyl)amino]-3-chloro-phenyl]-N-[3-(1H-pyrazol-4-yl)propyl]pyridine-3-carboxamide]	C (C = ≥66% inhibition)
CC(=O)N(CC1CC1)c1ccc(-c2ccc(NC(=O)CCc3cccnc3F)cn2)cc1Cl [I-T2369]	C (C = ≥66% inhibition)

SMILES	NAMPT Inhibition Code*
CC(=O)N(CC1CC1)c1ccc(-c2ccc(NC(=O)C(F)c3ccccc3)cn2)cc1Cl (centres unmarked) [I-T2331, N-[6-[4-[acetyl(cyclopropylmethyl)amino]-3-chloro-phenyl]-3-pyridyl]-2-fluoro-2-phenyl-acetamide]	B (B = >33 to <66% inhibition)
CC(=O)N(CC(F)F)c1ccc(-c2ccc(NC(=O)C3CC3c3cccnc3)cn2)cc1Cl (centres unmarked) [I-T2294, N-[6-[4-[acetyl(2,2-difluoroethyl)amino]-3-chloro-phenyl]-3-pyridyl]-2-(3-pyridyl)cyclopropane carboxamide]	C (C = ≥66% inhibition)
CC(=O)N(CC1CC1)c1ccc(-c2ccc(C(=O)NCCc3cncs3)cn2)cc1Cl [I-T2360, 6-[4-[acetyl(cyclopropylmethyl)amino]-3-chloro-phenyl]-N-(2-thiazol-5-ylethyl)pyridine-3-carboxamide]	C (C = ≥66% inhibition)
CC(=O)N(CC1CC1)c1ccc(-c2ccc(C(=O)NCCCc3cn[nH]c3)cn2)cc1C#N [I-T2306, 6-[4-[acetyl(cyclopropylmethyl)amino]-3-cyano-phenyl]-N-[3-(1H-pyrazol-4-yl)propyl]pyridine-3-carboxamide]	C (C = ≥66% inhibition)
CC(=O)N(CC1CC1)c1ccc(-c2ccc(C(=O)NCCc3cccnc3)cn2)cc1F [I-T2301, 6-[4-[acetyl(cyclopropylmethyl)amino]-3-fluoro-phenyl]-N-[2-(3-pyridyl)ethyl]pyridine-3-carboxamide]	C (C = ≥66% inhibition)
CC(=O)N(CC1CC1)c1ccc(-c2ccc(C(=O)NCC3CCCCC3)cn2)cc1Cl [I-T2337, 6-[4-[acetyl(cyclopropylmethyl)amino]-3-chloro-phenyl]-N-(cyclohexylmethyl)pyridine-3-carboxamide]	C (C = ≥66% inhibition)
CC(=O)N(CC(F)F)c1ccc(-c2ccc(C(=O)NCCc3cccnc3)cn2)cc1Cl [I-T2205, 6-[4-[Acetyl(2,2-difluoroethyl)amino]-3-chloro-phenyl]-N-[2-(3-pyridyl)ethyl]pyridine-3-carboxamide]	C (C = ≥66% inhibition)
CC(=O)N(CC1CC1)c1ccc(-c2ccc(NC(=O)COc3cccnc3)cn2)cc1Cl [I-T2119, N-[6-[4-[acetyl(cyclopropylmethyl)amino]-3-chloro-phenyl]-3-pyridyl]-2-(3-pyridyloxy)-acetamide]	C (C = ≥66% inhibition)
COC(=O)c1cc(-c2ccc(C(=O)NCCCc3cn[nH]c3)cn2)ccc1N(CC1CC1)C(C)=O [I-T2298, Methyl 2-[acetyl(cyclopropylmethyl)amino]-5-[5-[3-(1H-pyrazol-4-yl)propylcarbamoyl]-2-pyridyl]benzoate]	C (C = ≥66% inhibition)
CC(=O)N(CC1CC1)c1ccc(-c2ccc(C(=O)NCc3nccs3)cn2)cc1Cl [I-T2356, 6-[4-[acetyl(cyclopropylmethyl)amino]-3-chloro-phenyl]-N-(thiazol-2-ylmethyl)pyridine-3-carboxamide]	A (*A = <33% inhibition)
CC(=O)N(CC1CC1)c1ccc(-c2ccc(C(=O)NCc3cscn3)cn2)cc1Cl [I-T2354, 6-[4-[acetyl(cyclopropylmethyl)amino]-3-chloro-phenyl]-N-(thiazol-4-ylmethyl)pyridine-3-carboxamide]	A (*A = <33% inhibition)
CC(=O)N(CC1CC1)c1ccc(-c2ccc(NC(=O)Cc3cccnc3)cn2)cc1Cl [I-T2267, N-[6-[4-[acetyl(cyclopropylmethyl)amino]-3-chloro-phenyl]-3-pyridyl]-2-(3-pyridyl)acetamide]	C (C = ≥66% inhibition)
CC(=O)N(CC1CC1)c1ccc(-c2ccc(NC(=O)CCc3ccc(F)nc3)cn2)cc1Cl [I-T2384, N-[6-[4-[acetyl(cyclopropylmethyl)amino]-3-chloro-phenyl]-3-pyridyl]-3-(6-fluoro-3-pyridyl)propanamide]	B (B = >33 to <66% inhibition)
CC(=O)N(CC1CC1)c1ccc(-c2ccc(C(=O)NCc3ccccc3)cn2)cc1Cl [I-T2113, 6-[4-[Acetyl(cyclopropylmethyl)amino]-3-chloro-phenyl]-N-benzyl-pyridine-3-carboxamide]	C (C = ≥66% inhibition)
CC(=O)N(CC1CC1)c1ccc(-c2ccc(C(=O)NCCc3ccsc3)cn2)cc1Cl [I-T2353, 6-[4-[acetyl(cyclopropylmethyl)amino]-3-chloro-phenyl]-N-[2-(3-thienyl)ethyl]pyridine-3-carboxamide]	C (C = ≥66% inhibition)
CC(=O)N(CC(F)F)c1ccc(-c2ccc(NC(=O)Cc3cccnc3)cn2)cc1Cl [I-T2290, N-[6-[4-[acetyl(2,2-difluoroethyl)amino]-3-chloro-phenyl]-3-pyridyl]-2-(3-pyridyl) acetamide]	C (C = ≥66% inhibition)
